SMILES strings stand for the structures.

Our source for the IC50 and inhibition values is patent US20260000692A1, “Substituted N-(Pyridin-2-yl)Acetamide Derivatives as CDK12/13 Inhibitors” (Aurigene Oncology Limited, priority 2022, published 2026).

The assay addresses CDK12 (Homo sapiens, UniProt Q9NYV4). The assay is described as follows: Biochemical assay for CDK12 (LANCE TR-FRET, IC50 determination). Conditions: for IC50: CDK12, IC50 class, read-out: IC50 μM (in range); for inhibition at 10 µM: compound at 10 μM, read-out: CDK12 % Inhibition @ 10 μM. As for the experimental part: Biochemical Assay for CDK12 (IC50 Determination):
The inhibitory activity of the test compounds was assessed by the LANCE TR-FRET assay, which detects the ATP-dependent phosphorylation of an ULight-4E-BP1 (Thr37/Thr46) substrate peptide (100 nM) by CDK12 (30 nM). Briefly, the enzyme reaction was run in reaction buffer (25 mM HEPES (pH 7.5), 10 mM MgCl2, […], 0.01% Triton x, 1 mM DTT). The assay was performed in 384-well plate format. The end concentration of the ATP substrate was […], and that of the ULight-4E-BP1 (Thr37/Thr46) substrate peptide was 100 nM, and of CDK12 was 30 nM. Pre-incubation of the compound and enzyme was performed for 60 min at room temperature. After 60 min incubation at room temperature, the reaction was terminated by the addition of 40 mM EDTA and 0.5 nM Eu-labeled anti-phospho-eIF4E-binding protein (Thr37/46) antibody in LANCE detection buffer. Time-resolved fluorescence (excitation, 320 nm; emission donor, 615 nm; emission acceptor, 665 nm) was monitored by using 2030 multilabel reader Victor5 (PerkinElmer). The Fluorescence emission of the samples were measured and the ratio was plotted against the compound concentration to generate the dose response curve. The IC50 values were derived by fitting a sigmoidal dose-response curve to a plot of assay readout over inhibitor concentration. All fits were computed with the program Prism 5.03 (Graph Pad Software, San Diego, CA). The % inhibition values at […] were calculated with respect to enzyme activity.
(In TR-FRET formats the signal depends on donor and acceptor labels being close together.)

Sequence of CDK12 (Q9NYV4 whole entry): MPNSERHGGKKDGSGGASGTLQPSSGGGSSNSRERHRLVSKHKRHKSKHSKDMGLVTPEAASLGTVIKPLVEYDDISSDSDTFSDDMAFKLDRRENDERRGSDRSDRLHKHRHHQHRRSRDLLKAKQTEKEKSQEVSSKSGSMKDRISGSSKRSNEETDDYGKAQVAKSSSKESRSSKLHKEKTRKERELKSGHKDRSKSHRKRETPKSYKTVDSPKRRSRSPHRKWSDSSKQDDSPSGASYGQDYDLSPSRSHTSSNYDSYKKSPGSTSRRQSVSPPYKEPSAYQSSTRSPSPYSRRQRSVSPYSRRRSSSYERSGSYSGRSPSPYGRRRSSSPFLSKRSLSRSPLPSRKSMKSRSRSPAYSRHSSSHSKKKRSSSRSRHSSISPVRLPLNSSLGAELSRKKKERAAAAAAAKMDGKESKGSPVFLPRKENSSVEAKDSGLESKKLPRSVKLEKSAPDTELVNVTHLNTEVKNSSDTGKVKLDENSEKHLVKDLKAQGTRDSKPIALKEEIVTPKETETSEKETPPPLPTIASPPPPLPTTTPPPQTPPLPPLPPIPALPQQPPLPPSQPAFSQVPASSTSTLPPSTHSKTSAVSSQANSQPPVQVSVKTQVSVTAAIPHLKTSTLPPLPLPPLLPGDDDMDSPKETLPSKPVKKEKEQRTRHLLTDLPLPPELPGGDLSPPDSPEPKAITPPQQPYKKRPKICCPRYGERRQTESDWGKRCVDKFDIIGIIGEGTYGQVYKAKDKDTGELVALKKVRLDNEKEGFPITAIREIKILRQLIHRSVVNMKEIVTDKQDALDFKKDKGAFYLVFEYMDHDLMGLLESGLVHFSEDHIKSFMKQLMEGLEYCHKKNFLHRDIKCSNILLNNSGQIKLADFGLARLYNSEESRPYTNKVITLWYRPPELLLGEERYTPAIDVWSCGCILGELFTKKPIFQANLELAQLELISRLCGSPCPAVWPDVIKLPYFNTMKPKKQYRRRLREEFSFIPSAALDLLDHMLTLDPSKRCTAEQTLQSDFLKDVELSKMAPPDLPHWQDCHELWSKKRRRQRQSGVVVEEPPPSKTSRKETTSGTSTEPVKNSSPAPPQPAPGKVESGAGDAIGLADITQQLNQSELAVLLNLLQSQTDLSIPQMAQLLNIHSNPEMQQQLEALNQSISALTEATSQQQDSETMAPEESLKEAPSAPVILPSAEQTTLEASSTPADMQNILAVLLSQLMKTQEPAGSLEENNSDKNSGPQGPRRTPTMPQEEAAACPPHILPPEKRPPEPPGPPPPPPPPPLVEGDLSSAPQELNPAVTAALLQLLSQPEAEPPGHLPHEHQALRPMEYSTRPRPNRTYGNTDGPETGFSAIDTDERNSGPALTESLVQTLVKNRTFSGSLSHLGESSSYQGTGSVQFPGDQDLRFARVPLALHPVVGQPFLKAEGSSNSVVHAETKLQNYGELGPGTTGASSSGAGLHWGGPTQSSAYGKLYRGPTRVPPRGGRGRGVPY
Sequence of CDK12 (O75909 whole entry partner): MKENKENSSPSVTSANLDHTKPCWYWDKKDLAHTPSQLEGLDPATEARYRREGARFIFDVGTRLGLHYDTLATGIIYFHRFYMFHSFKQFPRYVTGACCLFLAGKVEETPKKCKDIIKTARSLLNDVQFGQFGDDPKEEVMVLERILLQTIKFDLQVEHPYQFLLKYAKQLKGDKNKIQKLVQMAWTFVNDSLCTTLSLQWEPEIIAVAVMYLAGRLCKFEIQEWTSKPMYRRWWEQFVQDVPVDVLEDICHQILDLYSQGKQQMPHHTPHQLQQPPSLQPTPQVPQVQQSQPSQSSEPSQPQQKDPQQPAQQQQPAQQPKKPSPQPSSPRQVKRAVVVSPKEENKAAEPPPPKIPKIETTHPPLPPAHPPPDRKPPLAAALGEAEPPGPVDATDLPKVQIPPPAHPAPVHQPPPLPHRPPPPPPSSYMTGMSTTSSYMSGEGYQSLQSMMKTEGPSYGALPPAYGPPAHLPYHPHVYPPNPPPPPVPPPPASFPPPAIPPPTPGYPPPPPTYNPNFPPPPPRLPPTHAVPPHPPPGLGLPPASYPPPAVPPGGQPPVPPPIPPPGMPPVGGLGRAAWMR

The term IC50 denotes the concentration at which inhibition is half-maximal. By inhibition is commonly meant the change of the read-out against control, counted positive when it falls. For the molecule `N#CN1CC=C(c2ccc(CC(=O)Nc3cc(C4(O)COC4)c(Cl)cn3)cn2)CC1` [Compound 17, N-(5-chloro-4-(3-hydroxyoxetan-3-yl)pyridin-2-yl)-2-(1′-cyano-1′,2′,3′,6′-tetrahydro-[2,4′-bipyridin]-5-yl)acetamide], the IC50 is < 0.01 µM and the inhibition at 10 µM came out at 92%.

Consider `N#CN1CC=C(c2ncc(CC(=O)Nc3ccc(Cl)cn3)cc2F)CC1` [Compound 18, N-(5-chloropyridin-2-yl)-2-(1′-cyano-3-fluoro-1′,2′,3′,6′-tetrahydro-[2,4′-bipyridin]-5-yl)acetamide], for which the half-maximal inhibitory concentration (IC50) was in the range of 0.01 to 0.1 µM and the inhibition at 10 µM was 87%.

Consider `N#CN1CC=C(c2ccc(CC(=O)Nc3cc(OC4CCOCC4)c(Cl)cn3)cn2)CC1` [Compound 19, N-(5-chloro-4-((tetrahydro-2H-pyran-4-yl)oxy)pyridin-2-yl)-2-(1′-cyano-1′,2′,3′,6′-tetrahydro-[2,4′-bipyridin]-5-yl)acetamide], for which the IC50 was < 0.01 µM and the inhibition at 10 µM is 91%.

Regarding `CCOc1cc(NC(=O)Cc2ccc(C3=CCN(C#N)CC3)nc2)ncc1Cl` [Compound 20, N-(5-chloro-4-ethoxypyridin-2-yl)-2-(1′-cyano-1′,2′,3′,6′-tetrahydro-[2,4′-bipyridin]-5-yl)acetamide], the IC50 is < 0.01 µM and the inhibition at 10 µM turned out to be 109%.

On to `CC(C)Oc1cc(NC(=O)Cc2ccc(C3=CCN(C#N)CC3)nc2)ncc1Cl` [Compound 21, N-(5-chloro-4-isopropoxypyridin-2-yl)-2-(1′-cyano-1′,2′,3′,6′-tetrahydro-[2,4′-bipyridin]-5-yl)acetamide], for which the IC50 is < 0.01 µM and the inhibition at 10 µM worked out at 94%.

Turning to `COCCOc1cc(NC(=O)Cc2ccc(C3=CCN(C#N)CC3)nc2)ncc1Cl` [Compound 22, N-(5-chloro-4-(2-methoxyethoxy)pyridin-2-yl)-2-(1′-cyano-1′,2′,3′,6′-tetrahydro-[2,4′-bipyridin]-5-yl)acetamide], the IC50 is < 0.01 µM and the inhibition at 10 µM worked out at 91%.

On to `CC(C)(O)c1cc(NC(=O)Cc2ccc(C3=CCN(C#N)CC3)nc2)ncc1Cl` [Compound 23, N-(5-chloro-4-(2-hydroxypropan-2-yl)pyridin-2-yl)-2-(1′-cyano-1′,2′,3′,6′-tetrahydro-[2,4′-bipyridin]-5-yl)acetamide], for which the IC50 was < 0.01 µM and the inhibition at 10 µM stood at 96%.

Regarding `N#CN1CC=C(c2ccc(CC(=O)Nc3cc(O[C@@H]4CCOC4)c(Cl)cn3)cn2)CC1` [Compound 26, (R)-N-(5-chloro-4-((tetrahydrofuran-3-yl)oxy)pyridin-2-yl)-2-(1′-cyano-1′,2′,3′,6′-tetrahydro-[2,4′-bipyridin]-5-yl)acetamide], the half-maximal inhibitory concentration (IC50) is < 0.01 µM and the inhibition at 10 µM amounted to 99%.

For the molecule `N#CN1CC=C(c2ccc(CC(=O)Nc3cc(O[C@H]4CCOC4)c(Cl)cn3)cn2)CC1` [Compound 27, (S)-N-(5-chloro-4-((tetrahydrofuran-3-yl)oxy)pyridin-2-yl)-2-(1′-cyano-1′,2′,3′,6′-tetrahydro-[2,4′-bipyridin]-5-yl)acetamide], the 50% inhibitory concentration (IC50) was < 0.01 µM and the inhibition at 10 µM amounted to 93%.

With `N#CN1CC=C(c2ccc(CC(=O)Nc3cc(OC4CCC4)c(Cl)cn3)cn2)CC1` [Compound 28, N-(5-chloro-4-cyclobutoxypyridin-2-yl)-2-(1′-cyano-1′,2′,3′,6′-tetrahydro-[2,4′-bipyridin]-5-yl)acetamide], the IC50 was < 0.01 µM and the inhibition at 10 µM was 95%.

In the case of `CC(CN(C)C)Oc1cc(NC(=O)Cc2ccc(C3=CCN(C#N)CC3)nc2)ncc1Cl` (stereo not shown) [Compound 31, N-(5-chloro-4-((1-(dimethylamino)propan-2-yl)oxy)pyridin-2-yl)-2-(1′-cyano-1′,2′,3′,6′-tetrahydro-[2,4′-bipyridin]-5-yl)acetamide], the IC50 is < 0.01 µM and the inhibition at 10 µM came to 89%.
